Like-named read-outs stand apart in the source and are kept apart here.
Legend:
Bcl-xL [1] = target: T1, Bcl-xL (Homo sapiens, UniProt Q07817); assay: competition FP with fluorescently labeled Bak-BH3 peptide, Bcl-xL; format: binding
Mcl-1 = Mcl-1 (Homo sapiens, UniProt Q07820); assay: direct-binding FP of BODIPY-TMR labeled analogs, Mcl-1; conditions: Table 5, BODIPY-labeled analogues
Bcl-xL [2] = target: T1, Bcl-xL; assay: biochemical
proteinase K [3] = target: T2, proteinase K (Parengyodontium album, UniProt P06873); assay: proteinase K stability of Puma BH3 peptides
gp41-5 = gp41-5 (Human immunodeficiency virus type 1 group M subtype B, UniProt P04578, C598G/DEL582-595/DEL601-626/T627G/W596S); assay: biochemical; format: binding, HIV; conditions: competition FP
NHR α-peptide 1 = target: T3, NHR α-peptide 1 (Human immunodeficiency virus type 1 group M subtype B, UniProt P04578); assay: CD thermal unfolding of 1:1 NHR + CHR peptide mixtures; format: physicochemical, HIV; conditions: Table 2; CD at 222 nm, 1:1 mixture with NHR α-peptide 1, PBS, 20 μM total peptide
T3 construct: made in house; host or cells: chemical synthesis (Fmoc solid phase)
Method: The interactions of select α/β-peptides with the gp41 NHR domain were further investigated by circular dichroism (CD) spectroscopy. The CD spectra of 3, 4, 5, 8, 9 and were measured, both alone (see FIG. 5A) and in a 1:1 mixture with NHR α-peptide 1 (see FIGS. 3A, 3B, 3C, and 3D, respectively). See also FIGS. 5B and 5C for the superimposed spectra. […] The magnitude of the CD signatures among the well-folded mixtures (1+3, 1+5 and 1+10, FIGS. 3A, 3C, and 3D, respectively) are similar, but the ratio of intensities at 208 and 222 nm changes as a function of β-residue content (more β-residues tracks with a less intense peak at 222 nm).
The interactions of CHR α-peptide 3 and α/β-peptide analogues 4, 5, 8 and 10 with a peptide derived from the gp41 NHR domain (1) were investigated by circular dichroism (CD) spectroscopy. […] The magnitude of the CD signatures among the well-folded mixtures (1+3, 1+5, 1+8 and 1+10) are similar, but the ratio of intensities at 208 and 222 nm changes as a function of β-residue content (higher β-residue content is correlated with a less intense peak at 222 nm). This trend is consistent with previous studies on helical oligomers containing mixed α/β backbones.
Circular Dichroism Spectroscopy. Circular dichroism measurements were carried out on an Aviv 202SF Circular Dichroism Spectrophotometer. Samples of each peptide were prepared at 20 μM concentration in PBS. Solutions of 1:1 peptide mixtures were prepared by mixing equal volumes from the same 20 μM stock solutions used for individual peptide measurements. Spectra were recorded in a 1 mm cell with a step size of 1 nm and an averaging time of 5 sec. All spectra are background corrected against buffer measured in the same cell. Thermal melts were carried out in 5-degree increments with an equilibration time of 10 min between each temperature change. Thermal unfolding data were fit to a simple two state folding model Shortle, D.; Meeker, A. K.; Freire, E. Biochemistry 1988, 27, 4761-4768) using GraphPad Prism.

[4] = target: T4, envelope glycoprotein of the HIV-1 clone HXB2 (Human immunodeficiency virus type 1 group M subtype B, UniProt P04578); assay: cell-cell fusion assay; format: cell-based
T4 construct: One cell line expresses HIV-1 Env (processed by cellular proteases to generate gp120+gp41); expressed in transfected cells; host or cells: CHO cells expressing HXB2 env (and Tat); U373-MAGI target cells

proteinase K [5] = target: T2, proteinase K; conditions: under the assay conditions
HIV-1 NL4-3 = conditions: read-out: Inhibition of HIV-1 infectivity, IC50 (nM), X4 strains, NL4-3; TZM-bl cells; mean ± S.E.M., three experiments
HIV-1 HC4 = conditions: read-out: Inhibition of HIV-1 infectivity, IC50 (nM), X4 strains, HC4; TZM-bl cells; mean ± S.E.M., three experiments
HIV-1 CC 1/85 = conditions: read-out: Inhibition of HIV-1 infectivity, IC50 (nM), R5 strains, CC 1/85; TZM-bl cells; mean ± S.E.M., three experiments
HIV-1 DJ258 = conditions: read-out: Inhibition of HIV-1 infectivity, IC50 (nM), R5 strains, DJ258; TZM-bl cells; mean ± S.E.M., three experiments
proteinase K [6] = target: T2, proteinase K; assay: in vitro; conditions: proteinase K solution in TBS
HIV = conditions: background; read-out: anti-HIV IC50 in cell-based assays; cited from earlier work
[7] = Table 4, read-out: gp41-5 binding affinity by FP Ki

T2 sequence (P06873 106-384): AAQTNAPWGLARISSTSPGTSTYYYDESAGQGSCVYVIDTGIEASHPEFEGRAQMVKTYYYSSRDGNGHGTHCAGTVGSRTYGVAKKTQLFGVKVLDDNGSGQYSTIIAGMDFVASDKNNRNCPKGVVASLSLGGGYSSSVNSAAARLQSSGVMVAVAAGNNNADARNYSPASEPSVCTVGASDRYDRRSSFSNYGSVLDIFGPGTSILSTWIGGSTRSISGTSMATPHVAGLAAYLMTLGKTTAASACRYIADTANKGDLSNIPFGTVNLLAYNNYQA
T1 sequence (Q07817 whole entry, species assumed): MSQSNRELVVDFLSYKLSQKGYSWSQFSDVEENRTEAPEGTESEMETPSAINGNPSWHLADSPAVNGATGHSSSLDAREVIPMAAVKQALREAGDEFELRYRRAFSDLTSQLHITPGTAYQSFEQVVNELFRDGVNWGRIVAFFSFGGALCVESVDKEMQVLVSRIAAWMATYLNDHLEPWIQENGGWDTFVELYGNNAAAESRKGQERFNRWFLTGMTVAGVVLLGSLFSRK
Chain of Mcl-1 (Q07820 whole entry, species assumed): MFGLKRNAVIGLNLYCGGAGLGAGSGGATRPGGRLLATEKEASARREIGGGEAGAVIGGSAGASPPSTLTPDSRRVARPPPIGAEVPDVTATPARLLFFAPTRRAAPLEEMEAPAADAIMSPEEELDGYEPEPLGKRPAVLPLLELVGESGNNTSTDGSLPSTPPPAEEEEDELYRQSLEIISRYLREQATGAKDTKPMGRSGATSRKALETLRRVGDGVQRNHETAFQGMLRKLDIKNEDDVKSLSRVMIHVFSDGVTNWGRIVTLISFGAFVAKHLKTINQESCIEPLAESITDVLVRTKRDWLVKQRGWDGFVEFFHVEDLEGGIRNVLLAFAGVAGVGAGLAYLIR

CC[C@H](C)[C@H](NC(=O)[C@H](CCC(=O)O)NC(=O)C[C@H](CCCNC(=N)N)NC(=O)[C@H](C)NC(=O)[C@H](Cc1c[nH]c2ccccc12)NC(=O)C[C@H](CCC(N)=O)NC(=O)[C@H](CCC(=O)O)NC(=O)[C@H](CCC(=O)O)NC(C)=O)C(=O)NCC(=O)N[C@@H](C)CC(=O)N[C@@H](CCC(N)=O)C(=O)N[C@@H](CC(C)C)C(=O)N[C@@H](CCCNC(=N)N)CC(=O)N[C@@H](CCCNC(=N)N)C(=O)N[C@@H](CCSC)C(=O)N[C@@H](C)C(=O)N[C@@H](CC(=O)O)CC(=O)N[C@@H](CC(=O)O)C(=O)N[C@@H](CC(C)C)C(=O)N[C@@H](CC(N)=O)CC(=O)N[C@@H](C)C(=O)N[C@@H](CCC(N)=O)C(=O)N[C@@H](Cc1ccc(O)cc1)C(=O)N[C@@H](CCC(=O)O)CC(=O)N[C@@H](CCCNC(=N)N)C(=O)N[C@@H](CCCNC(=N)N)C(N)=O [2′]
Ki (Bcl-xL [1]): < 1 nM | Kd (Mcl-1): 110 nM | half-life at 50 μm (in vitro): 100 min | Kd (Bcl-xL [2]): 2.2 nM | half-life at 50 μm (proteinase K [3]): > 50 h

CC[C@H](C)[C@H](NC(=O)C[C@H](CCC(=O)O)NC(=O)[C@H](CCCNC(=N)N)NC(=O)[C@H](C)NC(=O)[C@H](Cc1c[nH]c2ccccc12)NC(=O)C[C@H](CCC(N)=O)NC(=O)[C@H](CCC(=O)O)NC(=O)[C@H](CCC(=O)O)NC(C)=O)C(=O)NCC(=O)N[C@@H](C)CC(=O)N[C@@H](CCC(N)=O)C(=O)N[C@@H](CC(C)C)C(=O)N[C@@H](CCCNC(=N)N)C(=O)N[C@@H](CCCNC(=N)N)CC(=O)N[C@@H](CCSC)C(=O)N[C@@H](C)C(=O)N[C@@H](CC(=O)O)CC(=O)N[C@@H](CC(=O)O)C(=O)N[C@@H](CC(C)C)C(=O)N[C@@H](CC(N)=O)C(=O)N[C@@H](C)CC(=O)N[C@@H](CCC(N)=O)C(=O)N[C@@H](Cc1ccc(O)cc1)C(=O)N[C@@H](CCC(=O)O)CC(=O)N[C@@H](CCCNC(=N)N)C(=O)N[C@@H](CCCNC(=N)N)C(N)=O [3′]
half-life at 50 μm (in vitro): 3.5 min | half-life at 50 μm (proteinase K [3]): 2.83 h

CC[C@H](C)[C@H](NC(=O)[C@H](C)NC(=O)[C@H](CCCNC(=N)N)NC(=O)[C@H](CC(=O)O)NC(=O)[C@H](Cc1c[nH]c2ccccc12)NC(=O)[C@H](C)NC(=O)[C@H](CCC(=O)O)NC(=O)[C@H](Cc1c[nH]c2ccccc12)NC(=O)[C@@H](NC(=O)[C@@H](NC(C)=O)[C@@H](C)O)[C@@H](C)O)C(=O)N[C@@H](C)C(=O)N[C@@H](CCC(=O)O)C(=O)N[C@@H](Cc1ccc(O)cc1)C(=O)N[C@@H](C)C(=O)N[C@@H](C)C(=O)N[C@@H](CCCNC(=N)N)C(=O)N[C@H](C(=O)N[C@@H](CCC(=O)O)C(=O)N[C@@H](C)C(=O)N[C@@H](CC(C)C)C(=O)N[C@H](C(=O)N[C@@H](CCCNC(=N)N)C(=O)N[C@@H](C)C(=O)N[C@@H](C)C(=O)N[C@@H](CCC(N)=O)C(=O)N[C@@H](CCC(=O)O)C(=O)N[C@@H](CCC(N)=O)C(=O)N[C@@H](CCC(N)=O)C(=O)N[C@@H](CCC(=O)O)C(=O)N[C@@H](CCCCN)C(=O)N[C@@H](CC(N)=O)C(=O)N[C@@H](CCC(=O)O)C(=O)N[C@@H](C)C(=O)N[C@@H](C)C(=O)N[C@@H](CC(C)C)C(=O)N[C@@H](CCCNC(=N)N)C(=O)N[C@@H](CCC(=O)O)C(=O)N[C@@H](CC(C)C)C(N)=O)[C@@H](C)CC)[C@@H](C)CC [compound 3, reference compound]
Ki (gp41-5; Table 2, read-out: gp41-5 Ki): ≤ 0.2 nM | Ki (gp41-5; [7]): < 0.2 nM | Ki (gp41-5; read-out: Ki for gp41-5): < 0.2 nM | NHR + CHR Tm (° C.) (NHR α-peptide 1): 77 °C | IC50 [4]: 9 ± 3 nM | degradation by proteinase K (proteinase K [5]): completely degraded within minutes | IC50 (HIV-1 NL4-3): 5 ± 0.6 nM | IC50 (HIV-1 HC4): 27 ± 4 nM | IC50 (HIV-1 CC 1/85): 140 ± 20 nM | IC50 (HIV-1 DJ258): 58 ± 6 nM | half-life at 20 μM (proteinase K [6]; Tritirachium album (source organism of proteinase K)): 0.7 min | half-life at 20 μM (proteinase K [6]): 0.7 min

CC[C@H](C)[C@H](NC(=O)[C@H](C)NC(=O)[C@H](CCCNC(=N)N)NC(=O)[C@H](CC(=O)O)NC(=O)[C@H](Cc1c[nH]c2ccccc12)NC(=O)[C@H](C)NC(=O)[C@H](CCC(=O)O)NC(=O)[C@H](Cc1c[nH]c2ccccc12)NC(=O)[C@@H](NC(=O)[C@@H](NC(C)=O)[C@@H](C)O)[C@@H](C)O)C(=O)N[C@@H](C)C(=O)N[C@@H](CCC(=O)O)C(=O)N[C@@H](Cc1ccc(O)cc1)C(=O)N[C@@H](C)C(=O)N[C@@H](C)C(=O)N[C@@H](CCCNC(=N)N)C(=O)N[C@H](C(=O)N[C@@H](CCC(=O)O)C(=O)N[C@@H](C)C(=O)N[C@@H](CC(C)C)C(=O)N[C@H](C(=O)N[C@@H](CCCNC(=N)N)CC(=O)N[C@@H](C)C(=O)N[C@@H](C)C(=O)N[C@@H](CCC(N)=O)C(=O)N[C@@H](CCC(=O)O)CC(=O)N[C@@H](CCC(N)=O)C(=O)N[C@@H](CCC(N)=O)C(=O)N[C@@H](CCC(=O)O)CC(=O)N[C@@H](CCCCN)C(=O)N[C@@H](CC(N)=O)C(=O)N[C@@H](CCC(=O)O)C(=O)N[C@@H](C)CC(=O)N[C@@H](C)C(=O)N[C@@H](CC(C)C)C(=O)N[C@@H](CCCNC(=N)N)CC(=O)N[C@@H](CCC(=O)O)C(=O)N[C@@H](CC(C)C)C(N)=O)[C@@H](C)CC)[C@@H](C)CC [compound 5]
Ki (gp41-5; Table 2, read-out: gp41-5 Ki): 0.2 nM | Ki (gp41-5; [7]): < 0.2 nM | NHR + CHR Tm (° C.) (NHR α-peptide 1): 69 °C | IC50 [4]: 7 ± 2 nM | IC50 (HIV-1 NL4-3): 10 ± 2 nM | IC50 (HIV-1 HC4): 55 ± 8 nM | IC50 (HIV-1 CC 1/85): 270 ± 20 nM | IC50 (HIV-1 DJ258): 280 ± 90 nM

enfuvirtide
IC50 (HIV-1 NL4-3): 700 ± 100 nM | IC50 (HIV-1 HC4): 250 ± 20 nM | IC50 (HIV-1 CC 1/85): 1400 ± 400 nM | IC50 (HIV-1 DJ258): 330 ± 60 nM | IC50 (HIV): ~1 nM
